Results taken from patent US6770596B1, “Fused tricyclic compounds, process for their preparation, and herbicidal compositions containing them” (Ishihara Sangyo Kaisha Ltd., priority 2002, dated 2004).

How the values were obtained:
Assay type in all cases: in vivo
[1] = test system: redroot pigweed (Amaranthus retroflexus, AMR); test: Pre-emerge test, redroot pigweed; details: 250 g ai/ha, 14 days after application, rating scale 0-100 (0 no damage, 100 complete death)
Text: (§1) A standard greenhouse herbicide activity screening system was used to evaluate the herbicidal efficacy and crop safety of these test compounds. Seven broadleaf weed species including redroot pigweed (Amaranthus retroflexus, AMR), velvetleaf (Abutilon theophrasti, ABT), sicklepod (Cassia obtusifolia, CAO), ivyleaf morningglory (Ipomoea hederacea, IPH), lambsquarters (Chenopodium album, CHA), common ragweed (Ambrosia artemisiifolia L., AML), and cocklebur (Xanthium strumariunt, XAS) were used as test species. Four grass weed species including green foxtail (Setaria viridis, SEV), barnyardgrass (Echinachloa crus-galli, ECC), johnsongrass (Sorghum halepense, SOH), and large crabgrass (Digitaria sanguinalis, DIS) were also used. In addition, four crop species, field corn (Zea mays L., var. Dekalb 535, CORN), soybean (Glycine max L., var. Pella 86, SOY), upland rice (Oryza sp., var.Tebonnet, RICE), and wheat (Triticum aestivum) were included all plants were grown in 10 cm square plastic pots which were filled with a sandy loam soil mix.
(§2) For pre-emerge tests, seeds were planted one day prior to application of the test compounds. All test compounds were dissolved in acetone and applied to the test pots in a volume of 187 l/ha. Test materials were applied at rates ranging from 8 g ai/ha to 1000 g ai/ha using a track sprayer equipped with a TJ8001E even flow flat fan spray nozzle. This application simulates a typical commercial field herbicide application.
(§3) At 14 days after application of the test materials, phytotoxicity ratings were recorded. A rating scale of 0-100 was used for both pre and post emerge tests as previously described in Research Methods in Weed Science, 2nd edition, B, Truelove, Ed., Southern Weed Science Society, Auburn University, Auburn, Ala., 1977. Briefly, “0” corresponds to no damage and “100” corresponds to complete death of all plants in the test unit. This scale was used both to determine efficacy against weed species and damage to crop species. Herbicide activity data for various compounds of this invention, which are shown by compound No. in Tables 1-3, are shown in Tables 5 and 6.

[2] = test system: velvetleaf (Abutilon theophrasti, ABT); test: Pre-emerge test, velvetleaf; details: 250 g ai/ha, 14 days after application, rating scale 0-100 (0 no damage, 100 complete death)
Text: as §1, §2, §3

[3] = test system: sicklepod (Cassia obtusifolia, CAO); test: Pre-emerge test, sicklepod; details: 250 g ai/ha, 14 days after application, rating scale 0-100 (0 no damage, 100 complete death)
Text: as §1, §2, §3

[4] = test system: ivyleaf morningglory (Ipomoea hederacea, IPH); test: Pre-emerge test, ivyleaf morningglory; details: 250 g ai/ha, 14 days after application, rating scale 0-100 (0 no damage, 100 complete death)
Text: as §1, §2, §3

[5] = test system: lambsquarters (Chenopodium album, CHA); test: Pre-emerge test, lambsquarters; details: 250 g ai/ha, 14 days after application, rating scale 0-100 (0 no damage, 100 complete death)
Text: as §1, §2, §3

[6] = test system: common ragweed (Ambrosia artemisiifolia L., AML); test: Pre-emerge test, common ragweed; details: 250 g ai/ha, 14 days after application, rating scale 0-100 (0 no damage, 100 complete death)
Text: as §1, §2, §3

[7] = test system: cocklebur (Xanthium strumariunt, XAS); test: Pre-emerge test, cocklebur; details: 250 g ai/ha, 14 days after application, rating scale 0-100 (0 no damage, 100 complete death)
Text: as §1, §2, §3

[8] = test system: green foxtail (Setaria viridis, SEV); test: Pre-emerge test, green foxtail; details: 250 g ai/ha, 14 days after application, rating scale 0-100 (0 no damage, 100 complete death)
Text: as §1, §2, §3

[9] = test system: barnyardgrass (Echinachloa crus-galli, ECC); test: Pre-emerge test, barnyardgrass; details: 250 g ai/ha, 14 days after application, rating scale 0-100 (0 no damage, 100 complete death)
Text: as §1, §2, §3

[10] = test system: johnsongrass (Sorghum halepense, SOH); test: Pre-emerge test, johnsongrass; details: 250 g ai/ha, 14 days after application, rating scale 0-100 (0 no damage, 100 complete death)
Text: as §1, §2, §3

[11] = test system: large crabgrass (Digitaria sanguinalis, DIS); test: Pre-emerge test, large crabgrass; details: 250 g ai/ha, 14 days after application, rating scale 0-100 (0 no damage, 100 complete death)
Text: as §1, §2, §3

[12] = test system: field corn (Zea mays L., var. Dekalb 535, CORN); test: Pre-emerge test, crop damage field corn
Text: as §1, §2, §3

[13] = test system: soybean (Glycine max L., var. Pella 86, SOY); test: Pre-emerge test, crop damage soybean
Text: as §1, §2, §3

[14] = test system: upland rice (Oryza sp., var.Tebonnet, RICE); test: Pre-emerge test, crop damage upland rice
Text: as §1, §2, §3

[15] = test system: wheat (Triticum aestivum); test: Pre-emerge test, crop damage wheat
Text: as §1, §2, §3

[16] = test system: redroot pigweed (Amaranthus retroflexus, AMR); test: Post-emerge test, redroot pigweed; details: 250 g ai/ha, 14 days after application, rating scale 0-100 (0 no damage, 100 complete death)
Text: as §1, §2
(§4) For post-emerge tests, seeds were planted 8-21 days prior to the test to allow emergence and good foliage development prior to application of the test substances. At the time of the post-emerge application, plants of all species were usually at the 2-3 leaf stage of development. In the postemerge test, a commercial non-ionic surfactant was also included (0.25% v/v) to enhance wetting of the leaf surfaces of target plants.
as §3

[17] = test system: velvetleaf (Abutilon theophrasti, ABT); test: Post-emerge test, velvetleaf; details: 250 g ai/ha, 14 days after application, rating scale 0-100 (0 no damage, 100 complete death)
Text: as §1, §2, §4, §3

[18] = test system: sicklepod (Cassia obtusifolia, CAO); test: Post-emerge test, sicklepod; details: 250 g ai/ha, 14 days after application, rating scale 0-100 (0 no damage, 100 complete death)
Text: as §1, §2, §4, §3

[19] = test system: ivyleaf morningglory (Ipomoea hederacea, IPH); test: Post-emerge test, ivyleaf morningglory; details: 250 g ai/ha, 14 days after application, rating scale 0-100 (0 no damage, 100 complete death)
Text: as §1, §2, §4, §3

[20] = test system: lambsquarters (Chenopodium album, CHA); test: Post-emerge test, lambsquarters; details: 250 g ai/ha, 14 days after application, rating scale 0-100 (0 no damage, 100 complete death)
Text: as §1, §2, §4, §3

[21] = test system: common ragweed (Ambrosia artemisiifolia L., AML); test: Post-emerge test, common ragweed; details: 250 g ai/ha, 14 days after application, rating scale 0-100 (0 no damage, 100 complete death)
Text: as §1, §2, §4, §3

[22] = test system: cocklebur (Xanthium strumariunt, XAS); test: Post-emerge test, cocklebur; details: 250 g ai/ha, 14 days after application, rating scale 0-100 (0 no damage, 100 complete death)
Text: as §1, §2, §4, §3

[23] = test system: green foxtail (Setaria viridis, SEV); test: Post-emerge test, green foxtail; details: 250 g ai/ha, 14 days after application, rating scale 0-100 (0 no damage, 100 complete death)
Text: as §1, §2, §4, §3

[24] = test system: barnyardgrass (Echinachloa crus-galli, ECC); test: Post-emerge test, barnyardgrass; details: 250 g ai/ha, 14 days after application, rating scale 0-100 (0 no damage, 100 complete death)
Text: as §1, §2, §4, §3

[25] = test system: johnsongrass (Sorghum halepense, SOH); test: Post-emerge test, johnsongrass; details: 250 g ai/ha, 14 days after application, rating scale 0-100 (0 no damage, 100 complete death)
Text: as §1, §2, §4, §3

[26] = test system: large crabgrass (Digitaria sanguinalis, DIS); test: Post-emerge test, large crabgrass; details: 250 g ai/ha, 14 days after application, rating scale 0-100 (0 no damage, 100 complete death)
Text: as §1, §2, §4, §3

[27] = test system: field corn (Zea mays L., var. Dekalb 535, CORN); test: Post-emerge test, crop damage field corn
Text: as §1, §2, §4, §3

[28] = test system: soybean (Glycine max L., var. Pella 86, SOY); test: Post-emerge test, crop damage soybean
Text: as §1, §2, §4, §3

[29] = test system: upland rice (Oryza sp., var.Tebonnet, RICE); test: Post-emerge test, crop damage upland rice
Text: as §1, §2, §4, §3

[30] = test system: wheat (Triticum aestivum); test: Post-emerge test, crop damage wheat
Text: as §1, §2, §4, §3

[31] = var. Dekalb 535, Zea mays (field corn), in vivo, 14 days
[32] = var. Pella 86, Glycine max (soybean), in vivo, 14 days
[33] = var. Tebonnet, Oryza sp. (upland rice), in vivo, 14 days
[34] = Triticum aestivum (wheat), in vivo, 14 days
[35] = pre-emerge, 250 g ai/ha, 14 days after application, rating scale 0-100 (0 no damage, 100 complete death)
[36] = post-emerge, 250 g ai/ha, 14 days after application, rating scale 0-100 (0 no damage, 100 complete death)

| SMILES | Pre-emerge Herbicidal Activity AMR (phytotoxicity rating) [1] | Pre-emerge Herbicidal Activity ABT (phytotoxicity rating) [2] | Pre-emerge Herbicidal Activity CAO (phytotoxicity rating) [3] | Pre-emerge Herbicidal Activity IPH (phytotoxicity rating) [4] | Pre-emerge Herbicidal Activity CHA (phytotoxicity rating) [5] | Pre-emerge Herbicidal Activity AML (phytotoxicity rating) [6] | Pre-emerge Herbicidal Activity XAS (phytotoxicity rating) [7] | Pre-emerge Herbicidal Activity SEV (phytotoxicity rating) [8] | Pre-emerge Herbicidal Activity ECC (phytotoxicity rating) [9] | Pre-emerge Herbicidal Activity SOH (phytotoxicity rating) [10] | Pre-emerge Herbicidal Activity DIS (phytotoxicity rating) [11] | Post-emerge Herbicidal Activity AMR (phytotoxicity rating) [16] | Post-emerge Herbicidal Activity ABT (phytotoxicity rating) [17] | Post-emerge Herbicidal Activity CAO (phytotoxicity rating) [18] | Post-emerge Herbicidal Activity IPH (phytotoxicity rating) [19] | Post-emerge Herbicidal Activity CHA (phytotoxicity rating) [20] | Post-emerge Herbicidal Activity AML (phytotoxicity rating) [21] | Post-emerge Herbicidal Activity XAS (phytotoxicity rating) [22] | Post-emerge Herbicidal Activity SEV (phytotoxicity rating) [23] | Post-emerge Herbicidal Activity ECC (phytotoxicity rating) [24] | further results |
| --- | --- | --- | --- | --- | --- | --- | --- | --- | --- | --- | --- | --- | --- | --- | --- | --- | --- | --- | --- | --- | --- |
| C[C@H]1Oc2cc(F)c(-c3nn(C)c(OC(F)F)c3Cl)c3c2N(CC(=O)N3)C1=O [1-55, 8-[-4-Chloro-5-(difluoromethoxy)-1-methyl-1H-pyrazol-3-yl)-9-fluoro-2-R-methyl-5H-pyrazino[1,2,3-de]-1,4-benzoxazine-3,6(2H, 7H)-dione] | 100 | 99 | 100 | 100 | 100 | 100 | 95 | 100 | 100 | 100 | 100 | 100 | 100 | 99 | 100 | 100 | 85 | 100 | 99 | 95 | Pre-emerge crop damage CORN (phytotoxicity rating) [12, 31]: 20; Pre-emerge crop damage SOY (phytotoxicity rating) [13, 32]: 60; Pre-emerge crop damage RICE (phytotoxicity rating) [14, 33]: 40; Pre-emerge crop damage WHEAT (phytotoxicity rating) [15, 34]: 3; Post-emerge Herbicidal Activity SOH (phytotoxicity rating) [25]: 50; Post-emerge Herbicidal Activity DIS (phytotoxicity rating) [26]: 35; Post-emerge crop damage CORN (phytotoxicity rating) [27, 31]: 15; Post-emerge crop damage SOY (phytotoxicity rating) [28, 32]: 75; Post-emerge crop damage RICE (phytotoxicity rating) [29, 33]: 75; Post-emerge crop damage WHEAT (phytotoxicity rating) [30, 34]: 50 |
| Cn1nc(-c2c(F)cc3c4c2NC(=O)C(C)(C)N4C(=O)CO3)c(Cl)c1OC(F)F [1-27] | 100 | 100 | 100 | 100 | 100 | 100 | 80 | 100 | 100 | 100 | 100 | 100 | 100 | 100 | 100 | 100 | 98 | 100 | 100 | 100 | Pre-emerge crop damage CORN (phytotoxicity rating) [12, 35]: 55; Pre-emerge crop damage SOY (phytotoxicity rating) [13, 35]: 35; Pre-emerge crop damage RICE (phytotoxicity rating) [14, 35]: 85; Pre-emerge crop damage WHEAT (phytotoxicity rating) [15, 35]: 80; Post-emerge Herbicidal Activity SOH (phytotoxicity rating) [25]: 75; Post-emerge Herbicidal Activity DIS (phytotoxicity rating) [26]: 60; Post-emerge crop damage CORN (phytotoxicity rating) [27, 36]: 60; Post-emerge crop damage SOY (phytotoxicity rating) [28, 36]: 100; Post-emerge crop damage RICE (phytotoxicity rating) [29, 36]: 90; Post-emerge crop damage WHEAT (phytotoxicity rating) [30, 36]: 75 |
| CCC1C(=O)Nc2c(-c3ncc(C(F)(F)F)cc3Cl)c(F)cc3c2N1C(=O)CO3 (stereo not drawn) [1-66] | 100 | 100 | 98 | 100 | 100 | 100 | 50 | 100 | 100 | 100 | 100 | 100 | 100 | 75 | 100 | 100 | 80 | 100 | 98 | 100 | Pre-emerge crop damage CORN (phytotoxicity rating) [12, 35]: 95; Pre-emerge crop damage SOY (phytotoxicity rating) [13, 35]: 35; Pre-emerge crop damage RICE (phytotoxicity rating) [14, 35]: 85; Pre-emerge crop damage WHEAT (phytotoxicity rating) [15, 35]: 50; Post-emerge Herbicidal Activity SOH (phytotoxicity rating) [25]: 75; Post-emerge Herbicidal Activity DIS (phytotoxicity rating) [26]: 95; Post-emerge crop damage CORN (phytotoxicity rating) [27, 36]: 10; Post-emerge crop damage SOY (phytotoxicity rating) [28, 36]: 100; Post-emerge crop damage RICE (phytotoxicity rating) [29, 36]: 100; Post-emerge crop damage WHEAT (phytotoxicity rating) [30, 36]: 30 |
